Tested on: diarrhea-predominant IBS subjects
Format: in vivo, human
Details: Cilansetron 2 mg, N=1454
Method: The study was performed in approximately 150 study centers. Approximately 1600 eligible subjects were to be given cilansetron 2 mg TID. At Visit 1, pre-treatment assessments were conducted. […] Subjects were to return to the study site one month later for Visit 3 (Day 31) for their first interim assessment. […] All subjects who discontinued from the study were to have the same post-study assessments required at Visit 7 performed at their early termination visit. […]
Stool specimens were analyzed at every visit for occult blood. An independent GERB had been established to provide advice on GI AEs during the course of the study.
Adverse events were assessed at Baseline, at each clinic visit, and at the end of the study (Month 12 or the early termination visit). All AEs, which occurred during the study were followed up in accordance with good medical practice until resolved or judged no longer clinically significant, or if a condition was chronic, until fully characterized. Adverse events could occur in the specified follow-up period and, regardless of the interval since the last administration of the study medication, were treated in the same manner as an AE which occurred during the treatment with study medication. Each AE was evaluated for duration, severity, seriousness, and causal relationship to the investigational drug. The action taken and the outcome were also recorded.
Specifically, subjects who were lost to follow-up and had no post-Baseline contact with the site were excluded from the Safety population. The subjects who discontinued from the study due to lost to follow-up were identified based on the information collected on the study termination CRF page.
After the pretreatment assessment at Visit 1 (Days […] to −3), subjects were to return to the study site for a Baseline assessment and start the treatment at Visit 2 (Day 1).
For the by time-interval analyses of disposition, prevalence of AEs, and of markedly abnormal and predefined changes in laboratory values, vital signs, and ECGs, the following interval windows were used:
Adverse events that were already present prior to the first dose of cilansetron study medication but increased in severity afterwards were considered as treatment-emergent.
The 5% cutoff point was based on the incidence within higher level terms.
Subjects were counted at most once for each primary system organ class and preferred term. Serious AEs that resolved prior to receiving study medication or occurred more than 30 days after the last dose of study medication were not included in the incidence tables. A listing of all SAEs is presented; SAEs with onset prior to receiving study medication or more than 30 days after discontinuation of study medication were flagged. The listing presents lower level term and preferred term of the SAE, severity, action taken, outcome, and relationship of the SAE, start and stop date of the SAE, study day of onset of the SAE, age, race, and sex.

Cc1nccn1C[C@H]1CCc2c(c3cccc4c3n2CCC4)C1=O [cilansetron, (R)-(−)-4,5,6,8,9,10-hexahydro-10-[(2-methyl-1H-imidazol-1-yl)methyl]-11H-pyrido-[3,2,1-jk]-carbazol-11-one]
TEAE incidence: Intestinal Haemorrhages: 22 (2%) n (%) | TEAE incidence: Intestinal Infections: 1 (<1%) n (%) | TEAE incidence: Intestinal Mucosal Hypertrophy: 1 (<1%) n (%) | TEAE incidence: Intestinal Spasm: 1 (<1%) n (%) | TEAE incidence: Investigations: 176 (12%) n (%) | TEAE incidence: Irritable Bowel Syndrome Aggravated: 13 (<1%) n (%) | TEAE incidence: Lacunar Infarction: 1 (<1%) n (%) | TEAE incidence: Liver Function Analyses: 36 (2%) n (%) | TEAE incidence: Liver Function Tests NOS Abnormal: 1 (<1%) n (%) | TEAE incidence: Loose Stools: 15 (1%) n (%) | TEAE incidence: Lumbar Spinal Cord and Nerve Root Disorders: 1 (<1%) n (%) | TEAE incidence: Lymphocyte Count Decreased: 1 (<1%) n (%) | TEAE incidence: Lymphocyte Count Increased: 1 (<1%) n (%) | TEAE incidence: Lymphocyte Percentage Decreased: 1 (<1%) n (%) | TEAE incidence: Memory Impairment: 1 (<1%) n (%) | TEAE incidence: Memory Loss (Excl Dementia): 2 (<1%) n (%) | TEAE incidence: Meralgia Paraesthetica: 1 (<1%) n (%) | TEAE incidence: Metabolism Tests NEC: 9 (<1%) n (%) | TEAE incidence: Migraine Aggravated: 1 (<1%) n (%) | TEAE incidence: Migraine Headaches: 7 (<1%) n (%) | TEAE incidence: Migraine NOS: 6 (<1%) n (%) | TEAE incidence: Mineral and Electrolyte Analyses: 4 (<1%) n (%) | TEAE incidence: Monocyte Count Increased: 1 (<1%) n (%) | TEAE incidence: Mononeuropathies: 6 (<1%) n (%) | TEAE incidence: Mouth Cyst: 1 (<1%) n (%) | TEAE incidence: Musculoskeletal and Connective Tissue Signs and Symptoms NEC: 66 (5%) n (%) | TEAE incidence: Musculoskeletal and connective tissue disorders: 129 (9%) n (%) | TEAE incidence: Narcolepsy and Hypersomnia: 1 (<1%) n (%) | TEAE incidence: Nausea Aggravated: 1 (<1%) n (%) | TEAE incidence: Nervous system disorders: 155 (11%) n (%) | TEAE incidence: Neuralgia NOS: 4 (<1%) n (%) | TEAE incidence: Neurological Signs and Symptoms NEC: 30 (2%) n (%) | TEAE incidence: Neutrophil Count Decreased: 2 (<1%) n (%) | TEAE incidence: Neutrophil Count Increased: 2 (<1%) n (%) | TEAE incidence: Neutrophil Percentage Decreased: 2 (<1%) n (%) | TEAE incidence: Nitrite Urine Present: 4 (<1%) n (%) | TEAE incidence: Non-Mechanical Ileus: 1 (<1%) n (%) | TEAE incidence: Non-Site Specific Gastrointestinal Haemorrhages: 1 (<1%) n (%) | TEAE incidence: Oesophageal Spasm: 1 (<1%) n (%) | TEAE incidence: Oesophagitis NOS: 4 (<1%) n (%) | TEAE incidence: Oral Candidiasis: 2 (<1%) n (%) | TEAE incidence: Oral Dryness and Saliva Altered: 3 (<1%) n (%) | TEAE incidence: Oral Soft Tissue Signs and Symptoms: 1 (<1%) n (%) | TEAE incidence: Otitis Externa NOS: 2 (<1%) n (%) | TEAE incidence: Otitis Media NOS: 3 (<1%) n (%) | TEAE incidence: Painful Defaecation: 1 (<1%) n (%) | TEAE incidence: Pancreatitis Acute: 1 (<1%) n (%) | TEAE incidence: Paraesthesia: 3 (<1%) n (%) | TEAE incidence: Paraesthesias and Dysaesthesias: 5 (<1%) n (%) | TEAE incidence: Periodontitis: 3 (<1%) n (%) | TEAE incidence: Peripheral Neuropathies NEC: 1 (<1%) n (%) | TEAE incidence: Peripheral Neuropathy NOS: 1 (<1%) n (%) | TEAE incidence: Peritonsillar Abscess: 1 (<1%) n (%) | TEAE incidence: Petit Mal Epilepsy: 1 (<1%) n (%) | TEAE incidence: Pharyngitis Streptococcal: 1 (<1%) n (%) | TEAE incidence: Pharyngotonsillitis: 1 (<1%) n (%) | TEAE incidence: Physical Examination Procedures: 23 (2%) n (%) | TEAE incidence: Pituitary Analyses Anterior: 2 (<1%) n (%) | TEAE incidence: Platelet Analyses: 3 (<1%) n (%) | TEAE incidence: Platelet Count Decreased: 2 (<1%) n (%) | TEAE incidence: Platelet Count Increased: 1 (<1%) n (%) | TEAE incidence: Pneumonia NOS: 6 (<1%) n (%) | TEAE incidence: Post Herpetic Neuralgia: 1 (<1%) n (%) | TEAE incidence: Proctalgia: 6 (<1%) n (%) | TEAE incidence: Protein Urine Present: 7 (<1%) n (%) | TEAE incidence: Pruritus Ani: 3 (<1%) n (%) | TEAE incidence: Pseudofolliculitis Barbae: 1 (<1%) n (%) | TEAE incidence: Pyelonephritis Acute NOS: 1 (<1%) n (%) | TEAE incidence: Pyelonephritis NOS: 3 (<1%) n (%) | TEAE incidence: Qrs Axis Abnormal: 1 (<1%) n (%) | TEAE incidence: Radiculitis Lumbosacral: 1 (<1%) n (%) | TEAE incidence: Rectal Haemorrhage: 20 (1%) n (%) | TEAE incidence: Rectal Polyp: 1 (<1%) n (%) | TEAE incidence: Rectal Prolapse: 1 (<1%) n (%) | TEAE incidence: Rectal Tenesmus: 5 (<1%) n (%) | TEAE incidence: Rectal Ulcer: 1 (<1%) n (%) | TEAE incidence: Red Blood Cell Analyses: 2 (<1%) n (%) | TEAE incidence: Red Blood Cell Count Decreased: 1 (<1%) n (%) | TEAE incidence: Red Blood Cell Sedimentation Rate Increased: 1 (<1%) n (%) | TEAE incidence: Red Blood Cells Urine Positive: 2 (<1%) n (%) | TEAE incidence: Regurgitation of Food: 1 (<1%) n (%) | TEAE incidence: Renal Function Analyses: 2 (<1%) n (%) | TEAE incidence: Restless Leg Syndrome: 1 (<1%) n (%) | TEAE incidence: Retching: 3 (<1%) n (%) | TEAE incidence: Sciatica: 3 (<1%) n (%) | TEAE incidence: Sensitivity of Teeth: 1 (<1%) n (%) | TEAE incidence: Sensory Abnormalities NEC: 6 (<1%) n (%) | TEAE incidence: Sepsis, Bacteraemia and Viraemia: 3 (<1%) n (%) | TEAE incidence: Serum Ferritin Decreased: 1 (<1%) n (%) | TEAE incidence: Sinus Headache: 1 (<1%) n (%) | TEAE incidence: Sinusitis Acute NOS: 2 (<1%) n (%) | TEAE incidence: Sinusitis Chronic NOS: 1 (<1%) n (%) | TEAE incidence: Skeletal and Cardiac Muscle Analyses: 32 (2%) n (%) | TEAE incidence: Skin and Subcutaneous Tissue Abscess NOS: 1 (<1%) n (%) | TEAE incidence: Sleep Apnoea Syndrome: 1 (<1%) n (%) | TEAE incidence: Sleep Apnoeas: 1 (<1%) n (%) | TEAE incidence: Sleep Talking: 1 (<1%) n (%) | TEAE incidence: Stomatitis: 1 (<1%) n (%) | TEAE incidence: Stomatitis and Ulceration: 2 (<1%) n (%) | TEAE incidence: Stools Watery: 2 (<1%) n (%) | TEAE incidence: Syncope: 4 (<1%) n (%) | TEAE incidence: Taeniasis: 1 (<1%) n (%) | TEAE incidence: Tension Headaches: 2 (<1%) n (%) | TEAE incidence: Tinea Pedis: 1 (<1%) n (%) | TEAE incidence: Tissue Enzyme Analyses NEC: 7 (<1%) n (%) | TEAE incidence: Tongue Disorders NEC: 1 (<1%) n (%) | TEAE incidence: Tonsillitis Acute NOS: 2 (<1%) n (%) | TEAE incidence: Tonsillitis NOS: 11 (<1%) n (%) | TEAE incidence: Tooth Abscess: 2 (<1%) n (%) | TEAE incidence: Tooth Caries NOS: 3 (<1%) n (%) | TEAE incidence: Toothache: 11 (<1%) n (%) | TEAE incidence: Torticollis: 1 (<1%) n (%) | TEAE incidence: Tracheitis NOS: 5 (<1%) n (%) | TEAE incidence: Tracheobronchitis: 1 (<1%) n (%)

From patent publication US20070093520A1, “Method of treatment of diarrhea-predominant irritable bowel syndrome in a subject” (priority 2005, published 2007)
